Data as given in PubChem BioAssay AID493130 (Broad Institute, 2011).
Results filed as inconclusive are left out. Calls of active or inactive are those of the source.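 Rule for the calls: active = signal-lowering compounds whose fitted half-maximal concentration is at most ten times their highest tested dose; inconclusive = flat fit between -30 and -70%, or poor fit; inactive = flat within 30%, signal rising, or potency beyond limit.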

The compounds below were run against POS-1 (Caenorhabditis elegans) binding to mex-3 RNA (assay: inhibitors of POS-1/mex-3 RNA binding, dose response, counter-screen for MEX-5 RNA-binding inhibitor project, biochemical, fluorescence polarization, cherry-picked samples, set 2 (AID 493130;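 note: POS-1 as maltose binding protein fusion made in E. coli with FITC RNA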)). Details: POS-1/mex-3 RNA fluorescence polarization, 1 h.
Work on `Nc1nnc(CC(=O)N/N=C/c2cc([N+](=O)[O-])cc(Br)c2O)s1` yielded an AC50 of 6.03 µM.
For `CCc1cc[n+](-c2nc3ccccc3nc2[N-]S(=O)(=O)c2ccc(Br)s2)cc1`, the AC50 was 1.25 µM.
With `CCN1CC=C2C(C#N)=C(N)C(C#N)(C#N)[C@H](c3ccoc3)[C@H]2C1` the AC50 was 6.73 µM.
`Cc1cc(=O)n2[nH]c(=O)c(N=Nc3ccccc3)c2[nH]1` showed an AC50 of 0.306 µM.
`Oc1ccc(/C=N/NC(=S)Nc2cccnc2)cc1O` showed an AC50 of 9.5 µM.
Compound `CC1CCN(Cc2c(O)ccc3c2O/C(=C\c2ccco2)C3=O)CC1` has an AC50 of 3.53 µM.
`O=C(O[C@@H]1OC2COC(=O)c3cc(O)c(O)c(O)c3-c3c(cc(O)c(O)c3O)C(=O)O[C@@H]([C@H]1O)[C@@H]2O)c1cc(O)c(O)c(O)c1` gave an AC50 of 2.27 µM.
In the case of `COc1ccc(C2C=C(c3ccc(Br)cc3)Nc3nc(N4C(=O)CCC4=O)nn32)cc1` (stereo not drawn), the AC50 is reported as 8.26 µM.

Same assay, conditions: POS-1/mex-3 RNA fluorescence polarization, 1 h; at 10 µM (top of the series)
With `CCc1cc(-c2n[nH]c(C)c2-c2nc3ccccc3s2)c(O)cc1OCC(=O)NN` the “activity change, negative = inhibition” value was “inactive”.
With `COc1cc(CCC(=O)Nc2ccc(Cl)c(C(F)(F)F)c2)cc(OC)c1OC` the “activity change, negative = inhibition” value was “inactive”.
`Cc1cc(/C=C2\C(=O)NC(=O)N(c3cccc(F)c3)C2=O)c(C)n1-c1cc(C(=O)O)cc(C(=O)O)c1` was tested, and the “activity change, negative = inhibition” value was “inactive”.
`COCc1cc(C)nc(N/N=C/c2ccc(-c3cc(C(=O)O)ccc3Cl)o2)c1C#N` was tested, and the “activity change, negative = inhibition” value was “inactive”.
With `O=C(CCc1ccccc1)N/N=C\c1cc2c(cc1Br)OCO2` the “activity change, negative = inhibition” value was “inactive”.
`COc1ccc(C[C@@H]2c3cc(O)c(OC)cc3CCN2C)cc1O` was tested, and the “activity change, negative = inhibition” value was “inactive”.
In the case of `Cc1nn(C)cc1C(=O)NNC(=S)Nc1ccccc1`, the “activity change, negative = inhibition” value is reported as “inactive”.
For `CC(=O)Nc1ccc(/C=N/NC(=O)CNS(=O)(=O)c2ccccc2)cc1`, the “activity change, negative = inhibition” value was “inactive”.
`CC(=O)Nc1ccc(/C=C/c2nc(-c3ccccc3O)n[nH]2)cc1` was tested, and the “activity change, negative = inhibition” value was “inactive”.
In the case of `Fc1ccc(N=c2ssnc2Cl)c(F)c1`, the “activity change, negative = inhibition” value is reported as “inactive”.
For `CN(C)C(=O)Oc1ccc2c(c1)O/C(=C\c1ccccc1)C2=O`, the “activity change, negative = inhibition” value was “inactive”.
For `O=C1NC(=O)N(Cc2ccccc2)C(=O)/C1=C\c1ccco1`, the “activity change, negative = inhibition” value was “inactive”.
`Cc1cc(C)c2ccc(C(=O)O)nc2c1O` was tested, and the “activity change, negative = inhibition” value was “inactive”.
For `O=C(O)CCC(=O)NNc1ncnc2ccccc12`, the “activity change, negative = inhibition” value was “inactive”.
With `Cc1cc(/C=C2\SC(=S)N(Cc3ccco3)C2=O)c(C)n1-c1ccccc1` the “activity change, negative = inhibition” value was “inactive”.
With `CCCCN(CCCC)CCNC(=O)CNC(=O)c1cccs1` the “activity change, negative = inhibition” value was “inactive”.
For `CCS(=O)(=O)c1ccc2oc(=O)c(/C=C(\O)c3ccc(Cl)cc3)nc2c1`, the “activity change, negative = inhibition” value was “inactive”.
`O=C(O)c1ccc(N2C(=O)c3cccc4c(C(=O)O)ccc(c34)C2=O)cc1` was tested, and the “activity change, negative = inhibition” value was “inactive”.
With `Nc1ccc(S(=O)(=O)NNC(=O)C(=O)NNc2ccccn2)cc1` the “activity change, negative = inhibition” value was “inactive”.
In the case of `CCN(CC)c1ccc(/C=N/NC(=O)c2cccc(S(=O)(=O)Nc3ccccc3OC)c2)c(O)c1`, the “activity change, negative = inhibition” value is reported as “inactive”.
`O=C(C[n+]1ccc(C(=O)N/N=C/c2ccc(OCc3ccccc3)cc2)cc1)c1ccccc1` was tested, and the “activity change, negative = inhibition” value was “inactive”.
For `O=C(O)CCCN1C(=O)/C(=C\c2ccc(-c3nc4ccccc4s3)o2)SC1=S`, the “activity change, negative = inhibition” value was “inactive”.
`O=c1[nH]c2ccccc2n1Cc1ccc(Cl)cc1` was tested, and the “activity change, negative = inhibition” value was “inactive”.
In the case of `CCOC(=O)C1Cc2ccccc2C(=O)O1` (stereo not drawn), the “activity change, negative = inhibition” value is reported as “inactive”.
With `Oc1ccc(/C=N/Nc2ccc(Cl)nn2)c(O)c1O` the “activity change, negative = inhibition” value was “inactive”.
For `CCOc1ccccc1N=NC1C(=O)N(C(N)=S)N=C1C` (stereo not drawn), the “activity change, negative = inhibition” value was “inactive”.
In the case of `Nc1c(C(=O)Nc2ccccc2F)sc2nc(-c3cccnc3)ccc12`, the “activity change, negative = inhibition” value is reported as “inactive”.
With `NC(=O)C(=O)N/N=C1\CCc2ccccc21` the “activity change, negative = inhibition” value was “inactive”.
With `CN1CCc2nc3sc(C(=O)NC(C)(C)C)c(N)c3cc2C1` the “activity change, negative = inhibition” value was “inactive”.
For `O=c1[nH]c(=O)n(Cc2ccccc2)c(O)c1/C=C1\C=Nc2ccccc21`, the “activity change, negative = inhibition” value was “inactive”.
In the case of `Nc1ccccc1C(=O)NNC(=O)C(=O)/C=C(\O)c1ccccc1`, the “activity change, negative = inhibition” value is reported as “inactive”.
For `Cc1cccn2c(=O)c3cc(C(=O)NC(C)C)c(=N)n(Cc4ccncc4)c3nc12`, the “activity change, negative = inhibition” value was “inactive”.
For `NS(=O)(=O)c1ccc(N=Nc2ccc(=O)[nH]c2O)cc1`, the “activity change, negative = inhibition” value was “inactive”.
For `Cc1ccc(N=Nc2c(O)n(CN3CCOCC3)c3ccccc23)cc1`, the “activity change, negative = inhibition” value was “inactive”.
`CNC(=O)c1cc2ccc(OC)cc2oc1=O` was tested, and the “activity change, negative = inhibition” value was “inactive”.
`Cc1cccc(/C=C(\C#N)C(=O)Nc2ccccn2)c1` was tested, and the “activity change, negative = inhibition” value was “inactive”.
With `Cc1nc2c(N=Nc3ccccc3F)c(N)nn2c(N)c1C#N` the “activity change, negative = inhibition” value was “inactive”.
For `CC1(C)NC(=O)NC2(C)NC(=O)NC(C)(C)C12` (stereo not drawn), the “activity change, negative = inhibition” value was “inactive”.
In the case of `COC(=O)C1=C(C)N(c2ccc(C)c(C)c2)/C(=C/c2cccs2)C1=O`, the “activity change, negative = inhibition” value is reported as “inactive”.
In the case of `Cc1c(C=O)c(Cl)n(C)c(=O)c1C#N`, the “activity change, negative = inhibition” value is reported as “inactive”.
For `O=C1/C(=C\c2ccc(Br)cc2)SC(=S)N1NS(=O)(=O)c1ccccc1`, the “activity change, negative = inhibition” value was “inactive”.
For `CCCn1c(=N)c(C(=O)NC2CCCC2)cc2c(=O)n3cccc(C)c3nc21`, the “activity change, negative = inhibition” value was “inactive”.
With `Cc1cc2n(n1)C(c1c[nH]c3ccccc13)Nc1ccccc1-2` (stereo not drawn) the “activity change, negative = inhibition” value was “inactive”.
In the case of `O=C(C1=NN(c2ccccc2)C2C(=O)N(c3ccccc3)C(=O)C12)c1ccccc1` (stereo not drawn), the “activity change, negative = inhibition” value is reported as “inactive”.
With `O=C(N/N=C/c1cccnc1)c1ccc(O)cc1` the “activity change, negative = inhibition” value was “inactive”.
`CN1C(=O)N(C)C(c2cccc([N+](=O)[O-])c2)C2=C1CCCC2=O` (stereo not drawn) was tested, and the “activity change, negative = inhibition” value was “inactive”.
For `CN1C(=O)C(=Cc2sc(=O)n(-c3ccccc3)c2N(C)C)C(=O)N(C)C1=O`, the “activity change, negative = inhibition” value was “inactive”.
`CCc1ccc(N2C(=O)NC(=O)/C(=C\c3cccn3CCOc3ccc(C(C)C)cc3)C2=O)cc1` was tested, and the “activity change, negative = inhibition” value was “inactive”.
`O=C(Nc1cccc2ncccc12)c1ccccc1[N+](=O)[O-]` was tested, and the “activity change, negative = inhibition” value was “inactive”.
For `CCOc1cc(/C=N/n2c(C)nc3ccccc3c2=O)ccc1O`, the “activity change, negative = inhibition” value was “inactive”.
In the case of `CCOC(=O)C1CCN(c2nc3ccccc3nc2C(C#N)C(=O)OC(C)C)CC1` (stereo not drawn), the “activity change, negative = inhibition” value is reported as “inactive”.
`Cn1ncc2c(NNC(=O)c3ccccc3Cl)ncnc21` was tested, and the “activity change, negative = inhibition” value was “inactive”.
`COc1ccc(OC)c(/C=C/C(=O)Nc2ccc(OC)nc2)c1` was tested, and the “activity change, negative = inhibition” value was “inactive”.
For `COc1cccc(OCC(=O)NNC(=O)c2cnccn2)c1`, the “activity change, negative = inhibition” value was “inactive”.
With `CC(C)C(=O)OCC(=O)Nc1ccc2c(c1)CCC2` the “activity change, negative = inhibition” value was “inactive”.
With `O=C(O)c1cccc(-n2cccc2/C=C/[N+](=O)[O-])c1` the “activity change, negative = inhibition” value was “inactive”.
With `O=C(NNS(=O)(=O)c1ccc(F)cc1)c1cnccn1` the “activity change, negative = inhibition” value was “inactive”.
With `C=CCn1c(Cc2nc3ccc(Cl)cc3[nH]2)n[nH]c1=S` the “activity change, negative = inhibition” value was “inactive”.
For `FC(F)(F)c1nc2cc3nc4ccccc4[nH]c3cc2n1`, the “activity change, negative = inhibition” value was “inactive”.
In the case of `COc1cc(N2CCCC2)c(OC)cc1/C=C(/C#N)c1cccc(Br)c1`, the “activity change, negative = inhibition” value is reported as “inactive”.
